The IC50 is the midpoint of a concentration-inhibition curve.

Experimental findings from patent US12178880B2, “Antibody-drug conjugate, and intermediate thereof, preparation method therefor, and application thereof” (SHANGHAI FUDAN-ZHANGJIANG BIO-PHARMACEUTICAL CO., LTD., priority 2020, dated 2024) are described below.

The structures appear in SMILES notation. Where two headings read alike, the source gives them in different places. *1 amine or outer side, *2 acyl side, *3 side chain or, on linkers, in order; H or OH if unused. Where a SMILES comes first, the peptide text is derived from it. [ ]: non-standard residue; d: D form. The star is where a group is joined. X1 = CC[C@@]1(O)C(=O)OCc2c1cc1n(c2=O)Cc2c-1nc1cc(F)c(C)c3c1c2[C@H](N*)CC3; Hexanoyl(6-maleimido) = O=C1C=CC(=O)N1CCCCCC(=O)*; NHCH2OCH2CO = O=C(COCN[*:1])[*:2]

For one data set, the target named is tissue proteinase B (Homo sapiens, UniProt P07858). As to the kind of experiment: In vitro enzyme digestion of linker-drug conjugates. Type of data set: biochemical. The note with it: for speed of enzyme digestion (in words): pH 5.0 to 7.0. How it is done:
The linker-drug conjugate (LE14 and GGFG-Dxd) was co-incubated with tissue proteinase B in three different pH (5.0, 6.0, 7.0) buffers. Samples were taken at different time points and entered into a high-performance liquid chromatography-mass spectrometry instrument. The external standard method (with DXD as the external standard) was used to determine the release percentage of the drug.

Data set [1] in a line: Coupling of linker-drug conjugates with other antibodies. Type of data set: physicochemical.
Another data set has as its system SK-BR-3 cell line. Description: Killing activity of FDA026-LS13 before and after enzyme digestion. Type of data set: cell-based. The note with it: 144 hours. How it is done: SK-BR-3 cell line was selected as the experimental cells. After the sample was incubated in tissue proteinase B system (100 mM sodium acetate-acetic acid buffer, 4 mM dithiothreitol, pH 5.0) at 37° C. for 4 hours, the obtained sample was diluted with culture medium to different concentrations. 8 concentrations (1.5 to 10-fold dilution) were set from 70 nM to 0.003 nM of SN-38 concentration. […] The IC50 value was calculated by reading the […] after chemical luminescent staining with CellTiter-Glo® Luminescent Cell Viability Assay.

As to `CC[C@@]1(O)C(=O)OCc2c1cc1n(c2=O)Cc2c-1nc1cc(F)c(C)c3c1c2[C@@H](NC(=O)COCN(CCS(C)(=O)=O)C(=O)OCc1ccc(NC(=O)[C@H](C)NC(=O)[C@@H](NC(=O)CCCCCN2C(=O)C=CC2=O)C(C)C)cc1)CC3` [LE14], the “Percentage of drug release in the sample” value was determined as 15% at tissue proteinase B (pH 5.0, 0 h); 96.93% at tissue proteinase B (pH 5.0, 1 h); 98.35% on tissue proteinase B (pH 5.0, 2 h); 99.01% on tissue proteinase B (pH 5.0, 3 h); 99.21% on tissue proteinase B (pH 5.0, 4 h); 99.32% at tissue proteinase B (pH 5.0, 5 h). Also, the “Percentage of drug release in the sample” value at tissue proteinase B (pH 5.0, 6 h) was 97.39%; at tissue proteinase B (pH 6.0, 0 h), 14.28%; at tissue proteinase B (pH 6.0, 1 h), 95.98%; at tissue proteinase B (pH 6.0, 2 h), 96.8%; at tissue proteinase B (pH 6.0, 3 h), 98.45%; on tissue proteinase B (pH 6.0, 4 h), 98.81%. Besides, the “Percentage of drug release in the sample” value at tissue proteinase B (pH 6.0, 5 h) is recorded as 98.9%; on tissue proteinase B (pH 6.0, 6 h) it was 99%; on tissue proteinase B (pH 7.0, 0 h), 17.59%; at tissue proteinase B (pH 7.0, 1 h) it was 98.05%; at tissue proteinase B (pH 7.0, 2 h) it was 99.08%; at tissue proteinase B (pH 7.0, 3 h), 99.33%. Besides, the “Percentage of drug release in the sample” value at tissue proteinase B (pH 7.0, 4 h) was 99.2%; on tissue proteinase B (pH 7.0, 5 h) it was 100%; at tissue proteinase B (pH 7.0, 6 h), 99.39%. For the same compound, the “speed of enzyme digestion (in words)” value at tissue proteinase B is given as “quickly enzymatically digested”.
Turning to `CC[C@@]1(O)C(=O)OCc2c1cc1n(c2=O)Cc2c-1nc1cc(F)c(C)c3c1c2[C@H](NC(=O)COCNC(=O)CNC(=O)[C@H](Cc1ccccc1)NC(=O)CNC(=O)CNC(=O)CCCCCN1C(=O)C=CC1=O)CC3` [GGFG-Dxd, reference compound] ({Hexanoyl(6-maleimido)}-GGFG[NHCH2OCH2CO]-X1), the “Percentage of drug release in the sample” value was determined as 21.62% on tissue proteinase B (pH 5.0, 0 h); 25% on tissue proteinase B (pH 5.0, 1 h); 25.85% on tissue proteinase B (pH 5.0, 2 h); 27.76% at tissue proteinase B (pH 5.0, 3 h); 29.72% on tissue proteinase B (pH 5.0, 4 h); 31.69% on tissue proteinase B (pH 5.0, 5 h). The “Percentage of drug release in the sample” value on tissue proteinase B (pH 5.0, 6 h) is recorded as 34.17%; on tissue proteinase B (pH 6.0, 0 h), 23.58%; on tissue proteinase B (pH 6.0, 1 h), 24.8%; at tissue proteinase B (pH 6.0, 2 h) it was 27.02%; at tissue proteinase B (pH 6.0, 3 h), 29.29%; at tissue proteinase B (pH 6.0, 4 h), 31.37%. In addition, the “Percentage of drug release in the sample” value on tissue proteinase B (pH 6.0, 5 h) came to 33.05%; on tissue proteinase B (pH 6.0, 6 h), 35.95%; at tissue proteinase B (pH 7.0, 0 h) it was 22.98%; at tissue proteinase B (pH 7.0, 1 h) it was 26.53%; at tissue proteinase B (pH 7.0, 2 h) it was 29.52%; on tissue proteinase B (pH 7.0, 3 h), 31.95%. Also, the “Percentage of drug release in the sample” value on tissue proteinase B (pH 7.0, 4 h) is listed as 34.78%; on tissue proteinase B (pH 7.0, 5 h), 36.17%; on tissue proteinase B (pH 7.0, 6 h), 38.25%. The “speed of enzyme digestion (in words)” value on tissue proteinase B was “slow speed of enzyme digestion”. The “aggregation ratio when coupled with other antibodies” value in data set [1] is recorded as “high aggregation ratio”. In addition, in data set [1], the “precipitation when coupled with other antibodies” value was “produces precipitation”.
For `CCc1c2c(nc3ccc(O)cc13)-c1cc3c(c(=O)n1C2)COC(=O)[C@]3(O)CC` [SN-38, 7-ethyl-10-hydroxycamptothecin], the IC50 in the data set with SK-BR-3 cell line (read-out: IC50 (based on SN-38 equivalent) Before Enzyme Digestion) is 7.13 nM; in the data set on SK-BR-3 cell line (after tissue proteinase B system, pH 5.0, 37° C., 4 hours, read-out: IC50 (based on SN-38 equivalent) After Enzyme Digestion) it was 7.32 nM.
